Measured values from patent US20240180883A1, “TREATMENT OF MIGRAINE” (Allergan Pharmaceuticals International Limited, priority 2020, published 2024).
Where “and” joins values, the source holds several entries; their conditions need not be identical. Equal entries are not always repeated. Where two headings read alike, the source gives them in different places.

Assays:
[1] = Study A: drug interaction PK with verapamil or ketoconazole; format: in vivo, human; details: for AUC(0-inf) / half-life / Cmax / Tmax: human, plasma, oral
Description: Study A (verapamil and ketoconazole) comprised 3 treatment periods.
Healthy adults aged 19-50 years for Study A and 18-45 years for Study B were eligible to participate. […] For study B, participants had to have a BMI between 18.0 and 30 kg/m^2. Exclusion criteria for both studies included hypersensitivity to any study drug; exposure to hepatitis B virus, hepatitis C virus, or HIV; or use of any drug or substance known to affect CYP enzymes or P-gp.

[2] = Phase 1 food effect study, 100 mg tablet fed vs fasted; format: in vivo, human; details: for AUC(0-inf) / AUC(0-t) / Cmax / Tmax / Vd/F / half-life: both sexes, human, plasma, oral, 100 mg; for Vd/F: read-out: Vz/F, arithmetic mean (CV %); for half-life: read-out: t1/2, mean (CV %) (converted)
Procedure: The treatments were administered in 1 of 2 sequences in periods 1 and 2 with a washout period of at least 7 days between each treatment.
Eighteen healthy participants with a mean age of 28.4 years (range: 20 to 39 years) were enrolled. The majority of participants were male (14 of 18, 77.8%). […] Mean (SD) weight was 75.99 ([…]) kg and mean (SD) BMI was 25.03 (3.290) kg/m2. Participants were randomly assigned one of two treatments in 1 of 2 sequences in Periods 1 and 2, with a washout period of at least 7 days between each study treatment.
For fed participants, the standardized high-fat (approximately 50% of total caloric content of the meal) and high-calorie (total of approximately 800 to 1000 calories) breakfast derived approximately 150 calories from protein, 250 calories from carbohydrates, and 500 to 600 calories from fat. An example of a high-fat breakfast meal would be 2 eggs fried in butter, 2 strips of bacon, 2 slices of toast with butter, 4 ounces of hash brown potatoes, and 8 ounces of whole milk. […] Participants who were randomly assigned to receive ubrogepant under fed conditions were required to consume the high-fat, high-calorie breakfast in full. For all participants, no food was allowed for 4 hours following study treatment administration. Water was allowed as desired except for 1 hour before and 1 hour after study treatment administration.

BCRP = molecular target: T1, BCRP (Homo sapiens, UniProt Q9UNQ0); experiment: BCRP transporter substrate in vitro; format: in vitro ADME
T1 sequence (Q9UNQ0 1-655): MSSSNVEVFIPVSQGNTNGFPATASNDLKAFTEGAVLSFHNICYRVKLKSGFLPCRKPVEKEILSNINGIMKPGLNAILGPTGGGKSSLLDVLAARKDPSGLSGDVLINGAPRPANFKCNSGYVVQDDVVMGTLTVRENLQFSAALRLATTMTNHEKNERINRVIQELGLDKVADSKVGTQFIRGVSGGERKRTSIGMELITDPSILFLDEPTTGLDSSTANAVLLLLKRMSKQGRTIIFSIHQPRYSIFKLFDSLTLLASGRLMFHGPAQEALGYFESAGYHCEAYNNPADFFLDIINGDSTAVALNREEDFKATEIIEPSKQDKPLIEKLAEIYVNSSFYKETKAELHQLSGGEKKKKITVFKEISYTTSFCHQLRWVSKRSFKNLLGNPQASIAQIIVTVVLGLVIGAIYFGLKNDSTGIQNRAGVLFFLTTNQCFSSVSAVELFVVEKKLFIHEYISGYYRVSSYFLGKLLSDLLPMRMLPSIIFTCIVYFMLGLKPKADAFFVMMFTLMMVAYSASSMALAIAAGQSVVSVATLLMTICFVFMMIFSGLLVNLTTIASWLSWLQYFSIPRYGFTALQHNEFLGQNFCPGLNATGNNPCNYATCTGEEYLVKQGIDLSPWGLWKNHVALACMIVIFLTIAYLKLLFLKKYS

plasma protein = experiment: Plasma protein binding by equilibrium dialysis (hepatic impairment study); format: in vitro ADME, human
Procedure: Sampling was also done at the following times for plasma protein binding determinations: Day 1 at 0 hour (predose) and 2 hours post dose.
Protein binding blood samples were collected from all participants starting on Day 1 at 0 hour (predose) and at 2 hours post-dose. The pre-dose samples collected prior to dosing for each participants were spiked with known quantities of ubrogepant.

[3] = Ubrogepant clinical pharmacokinetics summary; format: in vivo, human
Procedure: Ubrogepant is excreted mainly through the biliary/fecal route, while the renal route is a minor route of elimination.
In clinical studies, ubrogepant was administered without regard to food. […]

P-gp = P-gp (Homo sapiens, UniProt P08183); experiment: P-gp transporter substrate in vitro; format: in vitro ADME
Chain of P-gp (P08183 whole entry): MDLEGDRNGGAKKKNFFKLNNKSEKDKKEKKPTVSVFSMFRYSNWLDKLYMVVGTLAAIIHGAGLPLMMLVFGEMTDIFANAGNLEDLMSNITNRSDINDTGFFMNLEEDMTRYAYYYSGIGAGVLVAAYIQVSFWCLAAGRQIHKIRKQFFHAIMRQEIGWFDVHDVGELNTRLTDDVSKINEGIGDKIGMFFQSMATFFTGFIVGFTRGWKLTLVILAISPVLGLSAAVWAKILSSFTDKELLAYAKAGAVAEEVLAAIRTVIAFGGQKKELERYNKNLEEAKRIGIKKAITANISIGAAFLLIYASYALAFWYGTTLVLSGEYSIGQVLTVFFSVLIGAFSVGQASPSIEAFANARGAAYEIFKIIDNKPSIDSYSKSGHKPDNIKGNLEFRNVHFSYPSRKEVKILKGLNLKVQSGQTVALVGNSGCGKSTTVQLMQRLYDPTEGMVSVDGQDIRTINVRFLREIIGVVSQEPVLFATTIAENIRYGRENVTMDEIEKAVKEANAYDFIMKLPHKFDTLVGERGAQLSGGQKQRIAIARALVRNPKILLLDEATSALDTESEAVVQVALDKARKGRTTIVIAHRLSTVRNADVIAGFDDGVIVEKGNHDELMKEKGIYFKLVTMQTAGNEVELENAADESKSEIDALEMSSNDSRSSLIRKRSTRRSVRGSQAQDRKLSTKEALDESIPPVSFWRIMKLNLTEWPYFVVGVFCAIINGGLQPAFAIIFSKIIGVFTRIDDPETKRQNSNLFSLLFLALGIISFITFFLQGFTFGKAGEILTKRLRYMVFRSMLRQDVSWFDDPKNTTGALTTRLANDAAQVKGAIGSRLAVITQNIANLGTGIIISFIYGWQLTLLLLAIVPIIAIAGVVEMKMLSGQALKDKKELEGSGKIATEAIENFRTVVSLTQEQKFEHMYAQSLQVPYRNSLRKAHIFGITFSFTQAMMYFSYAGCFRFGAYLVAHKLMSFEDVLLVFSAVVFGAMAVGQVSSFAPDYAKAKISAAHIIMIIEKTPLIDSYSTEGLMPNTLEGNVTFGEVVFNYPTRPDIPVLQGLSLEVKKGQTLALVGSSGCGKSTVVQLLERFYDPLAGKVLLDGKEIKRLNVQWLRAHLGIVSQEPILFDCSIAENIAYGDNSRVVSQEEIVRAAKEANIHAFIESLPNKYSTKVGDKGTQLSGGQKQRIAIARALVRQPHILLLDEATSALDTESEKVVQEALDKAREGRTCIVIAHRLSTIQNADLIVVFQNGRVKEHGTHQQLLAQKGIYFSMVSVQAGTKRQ

[4] = single dose [14C]-ubrogepant, healthy male subjects

For `C[C@@H]1[C@H](c2ccccc2)C[C@H](NC(=O)c2cnc3c(c2)C[C@@]2(C3)C(=O)Nc3ncccc32)C(=O)N1CC(F)(F)F` [ubrogepant, (3′S)-N-((3S,5S,6R)-6-methyl-2-oxo-5-phenyl-1-(2,2,2-trifluoroethyl)piperidin-3-yl)-2′-oxo-1′,2′,5,7-etrahydrospiro[cyclopenta[b]pyridine-6,3′-pyrrolo[2,3-b]pyridine]-3-carboxamide], the “increase in ubrogepant Cmax” value ([1]; coadministered with verapamil 240 mg vs alone) was roughly 2.8 fold, the AUC(0-inf) ([1]; 20 mg, ubrogepant 20 mg alone (Table 9), read-out: AUC0-∞, AM) was 213 ng·h/mL and the AUC(0-inf) ([1]; 20 mg, ubrogepant 20 mg alone, read-out: AUC0-∞, mean (SD)) was 213 ng·h/mL. It also gave a half-life ([1]; 20 mg, ubrogepant 20 mg alone, read-out: Apparent terminal t1/2, mean (SD) (converted)) of 150 min, a Cmax ([1]; 20 mg, ubrogepant 20 mg alone, read-out: Cmax, mean (SD)) of 45.2 ng/mL and a Tmax ([1]; 20 mg, ubrogepant 20 mg alone, read-out: Tmax, median (range)) of 2 h. For the same compound, the AUC(0-inf) ([1]; ubrogepant 20 mg + ketoconazole 400 mg, read-out: AUC0-∞, mean (SD)) was 2070 ng·h/mL, the half-life ([1]; ubrogepant 20 mg + ketoconazole 400 mg, read-out: Apparent terminal t1/2, mean (SD) (converted)) was 354 min and the Cmax ([1]; ubrogepant 20 mg + ketoconazole 400 mg, read-out: Cmax, mean (SD)) was 240 ng/mL. The Tmax ([1]; ubrogepant 20 mg + ketoconazole 400 mg, read-out: Tmax, median (range)) was 2.5 h, the AUC(0-inf) ([1]; ubrogepant 20 mg with verapamil 240 mg, read-out: AUC0-∞, AM) was 742 ng·h/mL and the half-life ([1]; ubrogepant 20 mg with verapamil 240 mg, read-out: Apparent terminal t1/2, AM (converted)) was 257 min. For the same compound, the Cmax ([1]; ubrogepant 20 mg with verapamil 240 mg, read-out: Cmax, AM) was 125 ng/mL, the Tmax ([1]; ubrogepant 20 mg with verapamil 240 mg, read-out: Tmax) was 2 h and the “Apparent terminal t1/2, mean (SD)” value ([1]; ubrogepant 20 mg + ketoconazole 400 mg) was 6.00 (1.27) h. For the same compound, the “Apparent terminal t1/2, mean (SD)” value ([1]; ubrogepant 20 mg alone) was 2.52 (0.56) h and 2.52 h, the “exposure of ubrogepant on co-administration” value ([1]; with ketoconazole, a strong CYP3A4 inhibitor) was “significant increase in exposure” and the “exposure of ubrogepant on co-administration” value ([1]; with verapamil, a moderate CYP3A4 inhibitor) was “increase in ubrogepant exposure”. The “effect of a high fat meal on extent of exposure (AUC0-t and AUC0-inf)” value ([2]; 1 × 100 mg tablet) was “did not affect the extent of exposure”, the “CL/F, arithmetic mean (CV %)” value ([2]; 1 × 100 mg tablet, fasted) was 77.29 (29.9) L/h and the “Tmax, median (minimum − maximum)” value ([2]; 1 × 100 mg tablet, fasted) was 1.00 (1.00-3.00) h. For the same compound, the “t1/2, mean (CV %)” value ([2]; 1 × 100 mg tablet, fasted) was 4.99 (23.0) h, the “CL/F, arithmetic mean (CV %)” value ([2]; 1 × 100 mg tablet, fed) was 76.55 (24.1) L/h and the “Tmax, median (minimum − maximum)” value ([2]; 1 × 100 mg tablet, fed) was 3.00 (0.50-4.00) h. The “t1/2, mean (CV %)” value ([2]; 1 × 100 mg tablet, fed) was 4.64 (11.1) h, the “maximum exposure (Cmax) lower under fed versus fasted conditions” value ([2]; 1 × 100 mg tablet, high fat meal) was “approximately 22%” and the AUC(0-inf) ([2]; 1 × 100 mg tablet, fasted, read-out: AUC0-inf, geometric mean (geometric CV %)) was 1360 ng·h/mL. The AUC(0-t) ([2]; 1 × 100 mg tablet, fasted, read-out: AUC0-t, geometric mean (geometric CV %)) was 1330 ng·h/mL, the Cmax ([2]; 1 × 100 mg tablet, fasted, read-out: Cmax, geometric mean (geometric CV %)) was 334 ng/mL and the AUC(0-inf) ([2]; 1 × 100 mg tablet, fasted, read-out: GLSM AUC0-inf) was 1370 ng·h/mL. It also gave an AUC(0-t) ([2]; 1 × 100 mg tablet, fasted, read-out: GLSM AUC0-t) of 1340 ng·h/mL, a Cmax ([2]; 1 × 100 mg tablet, fasted, read-out: GLSM Cmax) of 336 ng/mL and a Tmax ([2]; 1 × 100 mg tablet, fasted, read-out: Tmax, median (minimum − maximum)) of 1 h. For the same compound, the Vd/F ([2]; 1 × 100 mg tablet, fasted) was 536 L, the half-life ([2]; 1 × 100 mg tablet, fasted) was roughly 300 min and the AUC(0-inf) ([2]; 1 × 100 mg tablet, fed, read-out: AUC0-inf, geometric mean (geometric CV %)) was 1340 ng·h/mL. The AUC(0-t) ([2]; 1 × 100 mg tablet, fed, read-out: AUC0-t, geometric mean (geometric CV %)) was 1320 ng·h/mL, the Cmax ([2]; 1 × 100 mg tablet, fed, read-out: Cmax, geometric mean (geometric CV %)) was 262 ng/mL and the AUC(0-inf) ([2]; 1 × 100 mg tablet, fed, read-out: GLSM AUC0-inf) was 1350 ng·h/mL. It also gave an AUC(0-t) ([2]; 1 × 100 mg tablet, fed, read-out: GLSM AUC0-t) of 1330 ng·h/mL, a Cmax ([2]; 1 × 100 mg tablet, fed, read-out: GLSM Cmax) of 263 ng/mL and a Tmax ([2]; 1 × 100 mg tablet, fed, read-out: Tmax, median (minimum − maximum)) of 3 h. It also gave a Vd/F ([2]; 1 × 100 mg tablet, fed) of 507 L, a half-life ([2]; 1 × 100 mg tablet, fed) of roughly 300 min and a Tmax ([2]; 1 × 100 mg tablet, read-out: Tmax median difference (fed−fasted)) of 2 h. The “GMR AUC0-inf” value ([2]; fed vs fasted) was 98.89%, the “GMR AUC0-t” value ([2]; fed vs fasted) was 98.88% and the “GMR Cmax” value ([2]; fed vs fasted) was 78.39%. For the same compound, the “substrate of BCRP transporter” value (BCRP) was “substrate”, the “percentage of protein-bound ubrogepant” value (plasma protein; 0 hr (predose sample spiked with ubrogepant), mild-impaired) was 88.87 ± 1.12% and the “percentage of protein-bound ubrogepant” value (plasma protein; 0 hr (predose sample spiked with ubrogepant), moderate-impaired) was 87.42 ± 1.89%. The “percentage of protein-bound ubrogepant” value (plasma protein; 0 hr (predose sample spiked with ubrogepant), normal hepatic function) was 88.52 ± 0.84%, the “percentage of protein-bound ubrogepant” value (plasma protein; 0 hr (predose sample spiked with ubrogepant), severe-impaired) was 84.58 ± 0.91% and the “percentage of protein-bound ubrogepant” value (plasma protein; 2 hr post-dose, 100 mg, mild-impaired) was 89.9% and 89.85 ± 1.33%. The “percentage of protein-bound ubrogepant” value (plasma protein; 2 hr post-dose, 100 mg, moderate-impaired) was 88.2% and 88.24 ± 1.02%, the “percentage of protein-bound ubrogepant” value (plasma protein; 2 hr post-dose, 100 mg, normal hepatic function) was 89.3% and 89.28 ± 1.54% and the “percentage of protein-bound ubrogepant” value (plasma protein; 2 hr post-dose, 100 mg, severe-impaired) was 85.3% and 85.27 ± 0.94%. For the same compound, the renal route elimination ([3]; human, in vivo) was less than 10%, the “mean apparent oral clearance (CL/F)” value ([3]; human, in vivo, po) was “approximately 87 L/hr” and the half-life ([3]; human, plasma, oral, read-out: elimination half-life) was 300 to 420 min. For the same compound, the “time of peak plasma concentrations” value ([3]; oral administration) was “approximately 1.5 hours”, the “dose recovered as unchanged ubrogepant in feces” value [3, 4] was 42% and the “dose recovered as unchanged ubrogepant in urine” value [3, 4] was 6%. For the same compound, the “mean apparent central volume of distribution (V/L)” value ([3]; single dose oral administration) was “approximately 350 L”, the “change in AUC” value ([3]; with a high-fat meal) was “no change in AUC” and the “delay of time to maximum plasma concentration” value ([3]; with a high-fat meal) was 2 h. The “reduction in Cmax” value ([3]; with a high-fat meal) was 22% and the “substrate of P-gp transporter” value (P-gp) was “substrate”.
